Assay [1] concerns the target Aβ40 (Homo sapiens, UniProt P05067). Nature of the assay: ThT Aβ aggregation assay (kinetic Thioflavin T fluorescence). It counts as biochemical. To be noted: 20 μM Aβ, DMSO control at 80 hr = 0% inhibition, number in parenthesis = compound ID 1027 in that experiment; for inhibition at 10 µM: read-out: % inhib Thioflavin T Aβ 40 10 μM; for inhibition at 5 µM: 80 h, read-out: % inhib Thioflavin T Aβ 40 (5 μm). On the procedure: Preparation of Aβ40 Stock Solutions
Aβ40 (1.0 mg) was pre-treated in a 1.5 mL microfuge tube with HFIP (1 mL) and sonicated for 20 min to disassemble any pre-formed Aβ aggregates. The HFIP was removed with a stream of argon and the Aβ dissolved in Tris base (5.8 mL, 20 mM, pH ˜10). The pH was adjusted to 7.4 with concentrated HCl (˜10 μL) and the solution filtered using a syringe filter (0.2 μm) before being used.
The kinetic ThT assay for Aβ aggregation is similar to that of Chalifour et al (Chalifour et al, 2003, J. Biol. Chem. 278:34874-81). Briefly, pre-treated Aβ40 or Aβ42 (40 μM in 20 mM Tris, pH 7.4) was diluted with an equal volume of 8 μM Thioflavin T (ThT) in Tris (20 mM, pH 7.4, 300 mM NaCl). Aliquots of Aβ/ThT (200 μL) were added to wells of a black polystyrene 96-well plate, followed by 2 μL of a compound in DMSO (variable concentration), or DMSO alone (controls). Incubations were performed in triplicate and were taken to contain 20 μM Aβ, various concentration of compound in 20 mM Tris, pH 7.4, 150 mM NaCl, 1% DMSO. Plates were covered with clear polystyrene lids and incubated at 37° C. in a Tecan Genios microplate reader.
Analysis of ThT and ThS Aggregation Assays
Fluorescence readings (λex=450 nm, λem=480 nm) were taken every 15 min., after first shaking at high intensity for 15 s and allowing to settle for 10 s before each reading. Active compounds attenuated the increase in fluorescence over time that occurred in controls. In FIGS. 1-7, the time this procedure was performed extended to 80 hours (rightmost part of X-axis), at which point fluorescence increase generally reached an asymptote. Applying a definition of DMSO control at 80 hr as 100% aggregation (0% inhibition) and DMSO control at 0 hr as 0% aggregation (100% inhibition), a % inhibition score where higher is better can be calculated for a given concentration of compound. By repeating this procedure over several concentrations, a […] (IC50) can be measured, as is given in the table below for some compounds.

Assay [2] addresses Terminally biotinylated beta-amyloid (Aβ42) (Homo sapiens, UniProt P05067). The assay is described as follows: Aβ42 biotinylated (biotin-AB) oligomerization assay, NeutrAvidin capture ELISA. It counts as biochemical. The conditions noted are these: approximate value; 1 hr oligomerization at room temperature; read-out: IC50 Aβ 42-bio. The method, boiled down: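 Biotin-Aβ42, pretreated with HFIP/TFA to remove seeds, oligomerized 1 h at room temperature with compound in 20 mM sodium phosphate pH 7.5, 150 mM NaCl (DMSO up to 1%). Oligomers captured on NeutrAvidin plates, detected with streptavidin-HRP/TMB at 450 nm; IC50 approximate, in µM.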
For orientation: In an ELISA, binding on a coated surface is turned into a signal by an enzyme label.

The mark [3] stands for this setting: compound 5 μm (so in the source).

Molecules are shown by their SMILES.

Aβ40, sequence (P05067 672-711, species assumed): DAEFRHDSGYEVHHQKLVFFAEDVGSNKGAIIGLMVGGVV
Terminally biotinylated beta-amyloid (Aβ42), sequence (P05067 672-713, species assumed): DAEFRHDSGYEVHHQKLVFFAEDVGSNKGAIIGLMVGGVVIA

In general, IC50 refers to the concentration that inhibits the measured activity by half. For the molecule `COCCN1CCC=C(c2cc(N3CC(CN4CCCC4)C3)c3nonc3c2)C1` [compound 1523], in assay [1] (compound 10 μM), the inhibition at 10 µM came out at 55%. In assay [2], the IC50 is 1.3 µM.

For the molecule `CN1CCC=C(c2cc(N3CC(CN4CCCC4)C3)c3nonc3c2)C1` [compound 1524], in assay [1] (compound 10 μM), the inhibition at 10 µM is 61%. Besides, the IC50 in assay [2] worked out at 14.9 µM.

On to `c1cc(-c2cc(N3CC(CN4CCCC4)C3)c3nonc3c2)n[nH]1` [compound 1525], for which the inhibition at 10 µM in assay [1] (compound 10 μM) turned out to be 63%. Moreover, the IC50 in assay [2] is 13.2 µM.

In the case of `c1n[nH]cc1-c1cc(N2CC(CN3CCCC3)C2)c2nonc2c1` [compound 1526], the inhibition at 10 µM in assay [1] (compound 10 μM) is 60%. The IC50 in assay [2] was 5.8 µM.

Regarding `Cn1cc(-c2cc(N3CC(CN4CCCC4)C3)c3nonc3c2)cn1` [compound 1527], in assay [1] (compound 10 μM), the inhibition at 10 µM is 49%. For the same molecule, the IC50 in assay [2] was 7.5 µM.

With `c1cc(-c2cc(N3CC(CN4CCCC4)C3)c3nonc3c2)ccn1` [compound 1528], in assay [1] (compound 10 μM), the inhibition at 10 µM stood at 50%. The IC50 in assay [2] amounted to 7.8 µM.

On to `c1csc(-c2cc(N3CC(CN4CCCC4)C3)c3nonc3c2)c1` [compound 1529], for which the inhibition at 10 µM in assay [1] (compound 10 μM) came to 74%. Moreover, the IC50 in assay [2] amounted to 9 µM.

As for `c1coc(-c2cc(N3CC(CN4CCCC4)C3)c3nonc3c2)c1` [compound 1530], in assay [1] (compound 10 μM), the inhibition at 10 µM turned out to be 79%. Moreover, the concentration for half-maximal inhibition (IC50) in assay [2] was found to be 10.5 µM.

For the molecule `CN(C)C(=O)c1cccc(-c2cc(N3CC(CN4CCCC4)C3)c3nonc3c2)c1` [compound 1531], the inhibition at 10 µM in assay [1] (compound 10 μM) stood at 45%. Also, in assay [2], the IC50 was found to be 2.7 µM.

For the molecule `CSc1ccccc1-c1cc(N2CC(CN3CCCC3)C2)c2nonc2c1` [compound 1532], the inhibition at 10 µM in assay [1] (compound 10 μM) came out at 68%. Also, the IC50 in assay [2] was 27.1 µM.

`CS(=O)(=O)N1C=C(c2cc(N3CC(CN4CCCC4)C3)c3nonc3c2)CCC1` [compound 1533]: the inhibition at 10 µM in assay [1] (compound 10 μM) was determined as 35%. Also, the concentration for half-maximal inhibition (IC50) in assay [2] turned out to be 5.6 µM.

As to `CC(=O)N1C=C(c2cc(N3CC(CN4CCCC4)C3)c3nonc3c2)CCC1` [compound 1534], in assay [1] (compound 10 μM), the inhibition at 10 µM turned out to be 67%. In addition, the half-maximal inhibitory concentration (IC50) in assay [2] came out at 3.5 µM.

Regarding `OC(c1cc(-c2cc(N3CC(CN4CCCC4)C3)c3nonc3c2)cs1)C(F)(F)F` (stereo not drawn) [compound 1535], the inhibition at 5 µM in assay [1] (setting [3]) came out at 71%. Besides, the inhibition at 10 µM in assay [1] (compound 10 μM) was determined as 77%. Moreover, the IC50 in assay [2] came to 2.9 µM.

`Cn1nccc1-c1cc(N2CC(CN3CCCC3)C2)c2nonc2c1` [compound 1536]: the inhibition at 5 µM in assay [1] (setting [3]) turned out to be 43%. In assay [1] (compound 10 μM), the inhibition at 10 µM came out at 61%. Further, in assay [2], the 50% inhibitory concentration (IC50) was 4.2 µM.

Regarding `OC(c1cc(-c2cc(N3CC(CN4CCCC4)C3)c3nonc3c2)cs1)C(F)(F)F` (stereo not drawn) [compound 1537], the “% inhib Thioflavin T Aβ 40 10 μM” value in assay [1] (compound 10 μM) was 74%. Further, in assay [1] (setting [3]), the “% inhib Thioflavin T Aβ 40 (5 μm)” value stood at 71%. Moreover, in assay [2], the IC50 was determined as 3.5 µM.

Regarding `O=C(c1cc(N2CC(CN3CCCC3)C2)c2nonc2c1)N1CCOCC1` [compound 1538], the inhibition at 5 µM in assay [1] (setting [3]) worked out at 47%. The inhibition at 10 µM in assay [1] (compound 10 μM) was found to be 54%. The IC50 in assay [2] was determined as 2.9 µM.

`COC(c1cc(N2CC(CN3CCCC3)C2)c2nonc2c1)C(F)(F)F` (stereo not drawn) [compound 1539]: the inhibition at 5 µM in assay [1] (setting [3]) amounted to 53%. Further, in assay [1] (compound 10 μM), the inhibition at 10 µM came to 55%. The IC50 in assay [2] amounted to 7.8 µM.

Turning to `CCN(CC)C(=O)c1cc(N2CC(CN3CCCC3)C2)c2nonc2c1` [compound 1540], the inhibition at 5 µM in assay [1] (setting [3]) was 41%. Further, the inhibition at 10 µM in assay [1] (compound 10 μM) is 50%. For the same molecule, in assay [2], the half-inhibitory concentration (IC50) came out at 1.8 µM.

As for `O=C(NC1CC1)c1cc(N2CC(CN3CCCC3)C2)c2nonc2c1` [compound 1541], the inhibition at 5 µM in assay [1] (setting [3]) was determined as 19%. Besides, the inhibition at 10 µM in assay [1] (compound 10 μM) was determined as 31%. For the same molecule, the IC50 in assay [2] was determined as 4 µM.

As for `CN(C)C(=O)c1ccccc1-c1cc(N2CC(CN3CCCC3)C2)c2nonc2c1` [compound 1542], the inhibition at 5 µM in assay [1] (setting [3]) came to 15%. Further, in assay [1] (compound 10 μM), the inhibition at 10 µM is 36%. Besides, in assay [2], the IC50 is more than 20 µM.

Turning to `OC(c1ccc(-c2cc(N3CC(CN4CCCC4)C3)c3nonc3c2)s1)C(F)(F)F` (stereo not drawn) [compound 1543], the inhibition at 5 µM in assay [1] (setting [3]) is 63%. The inhibition at 10 µM in assay [1] (compound 10 μM) came out at 84%. Besides, the IC50 in assay [2] was 1.1 µM.
